Test results taken from patent EP0126944B1, “Use of 6-(Z) or 2-(Z) configurational 3,7,11-trimethyl-dodeca-2,6,10-trien-1-ols as bacteriostats in cosmetic products” (Dragoco Gerberding & Co. GmbH, priority 1983, dated 1984).

Key:
Assay in all cases: Vertical diffusion test (impregnated filter paper embedded in agar)
Assay type in all cases: cell-based
Corynebacterium species = conditions: 0,3 %; for Vertikaler Diffusionstest, Corynebacteriumt species 10^4 / Vertikaler Diffusionstest, Corynebacteriumt species 10^6 KBE/ml: 0,2 ml/ 15,9 cm^2; for Vertikaler Diffusionstest, Corynebacteriumt species 10^4: 10^4 KBE/ml; for antibakterielle Wirkung: Tabelle 1, Corynebacterium species
Source text: (§1) Die mikrobiologischen Prüfungen wurden mit den Bakterienarten Staphylococcus aureus, Corynebacterium species und Staphylococcus epidermidis durchgeführt. Es wurden jeweils Konzentrationen von 0,3 % der Verbindungen 1a, b, c, 2 gegen unterschiedliche Keimzahlen eingesetzt und 1. mit einer Aufschwemmung von 10^4 koloniebildenden Einheiten/ml (KBE/ml) und 2. mit 10^6 KBE/ml versehen. Die Durchführung der Untersuchung erfolgte in üblicher Weise, indem Filterpapierplättchen mit einer Fläche von 15,9 cm^2 mit je 0,2 ml der 0,3 % igen alkoholischen Konzentrationen beschickt wurden. Nach Trocknen der aufgebrachten Lösungen wurden die Filterpapierplättchen dann in den Agar von Petrischalen eingebettet, so daß die Oberfläche mit einer dünnen Agarschicht überschichtet werden konnte. Danach wurde die ganze Platte mit den Testbakterien in unterschiedlicher Keimkonzentration beimpft. (Tabelle 1)

[1] = tested on: Staphylococcus aureus SG 511; conditions: for Vertikaler Diffusionstest, Staphylococcus aureus SG 511 10^4 / Vertikaler Diffusionstest, Staphylococcus aureus SG 511 10^6 KBE/ml / antibakterielle Wirkung: 0,3 %; for Vertikaler Diffusionstest, Staphylococcus aureus SG 511 10^4 / Vertikaler Diffusionstest, Staphylococcus aureus SG 511 10^6 KBE/ml: 0,2 ml/ 15,9 cm^2; for Vertikaler Diffusionstest, Staphylococcus aureus SG 511 10^4: 10^4 KBE/ml; for antibakterielle Wirkung: Tabelle 1
Source text: as §1

[2] = tested on: Staphylococcus epidermidis; conditions: for Vertikaler Diffusionstest, Staphylococcus epidermidis 10^4 / Vertikaler Diffusionstest, Staphylococcus epidermidis 10^6 KBE/ml / Hemmung / antibakterielle Wirkung: 0,3 %; for Vertikaler Diffusionstest, Staphylococcus epidermidis 10^4 / Vertikaler Diffusionstest, Staphylococcus epidermidis 10^6 KBE/ml: 0,2 ml/ 15,9 cm^2; for Vertikaler Diffusionstest, Staphylococcus epidermidis 10^4: 10^4 KBE/ml; for Hemmung / antibakterielle Wirkung: Tabelle 1
Source text: as §1

| Structure (SMILES) | Vertikaler Diffusionstest, Corynebacteriumt species 10^4 (Corynebacterium species) | Vertikaler Diffusionstest, Corynebacteriumt species 10^6 KBE/ml (Corynebacterium species) | antibakterielle Wirkung (Corynebacterium species) | Vertikaler Diffusionstest, Staphylococcus aureus SG 511 10^4 [1] | Vertikaler Diffusionstest, Staphylococcus aureus SG 511 10^6 KBE/ml [1] | antibakterielle Wirkung ([1]; Staphylococcus aureus) | Vertikaler Diffusionstest, Staphylococcus epidermidis 10^4 [2] | Vertikaler Diffusionstest, Staphylococcus epidermidis 10^6 KBE/ml [2] | Hemmung ([2]; Staphylococcus epidermidis) | antibakterielle Wirkung ([2]; Staphylococcus epidermidis) | Wirksamkeit ([1]; compared with 1a, b, c, Staphylococcus aureus) | Wirksamkeit ([2]; compared with 1a, b, c, Staphylococcus epidermidis) |
| --- | --- | --- | --- | --- | --- | --- | --- | --- | --- | --- | --- | --- |
| CC(C)=CCC/C(C)=C/CC/C(C)=C\CO [Substanz 1a] | 0 | 0 | deutliche antibakterielle Wirkung | 0 | 0 | deutliche antibakterielle Wirkung | 0 - 1 | 0 - 1 | fast totale Hemmung | deutliche antibakterielle Wirkung | – | – |
| CC(C)=CCC/C(C)=C\CC/C(C)=C/CO [Substanz 1b] | 0 | 0 | deutliche antibakterielle Wirkung | 0 | 0 | deutliche antibakterielle Wirkung | 0 | 0 - 1 | fast totale Hemmung | deutliche antibakterielle Wirkung | – | – |
| CC(C)=CCC/C(C)=C\CC/C(C)=C\CO [Substanz 1c] | 0 | 0 | deutliche antibakterielle Wirkung | 0 | 0 | deutliche antibakterielle Wirkung | 0 | 0 - 1 | fast totale Hemmung | deutliche antibakterielle Wirkung | – | – |
| CC(C)=CCCC(C)=CCCC(C)=CCO [Substanz 2, Farnesol, reference compound] | 0 | 0 | – | 0 - 1 | 0 - 1 | – | 1 - 2 | 1 - 2 | – | – | etwas geringerer Wirksamkeit | etwas geringerer Wirksamkeit |
